Where two headings read alike, the source gives them in different places.
Tests used:
[1] = system: Key Grass and Sedge Weeds as well as Grass Crops; test: Post-Emergent Test II: postemergent herbicidal activity, visual rating after 14 d (Table 8); type: in vivo; conditions: post-emergence, 336 h; for pest or weed control at 35 g/ha: 35 g ai/ha; for pest or weed control at 70 g/ha: 70 g ai/ha; for pest or weed control at 140 g/ha: 140 g ai/ha
Summary of the method: (§1)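 Greenhouse-grown plants at the first or second true leaf stage (7-21 d, ~15 h photoperiod, 23-29° C day) were sprayed with compound in acetone/DMSO-based aqueous spray containing crop oil concentrate and Triton X-155 at 187 L/ha. Injury versus untreated plants was rated visually after 14 d on a 0-100 scale.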

[2] = system: Key Broadleaf Weed and Crop Species; test: Post-Emergent Test II: postemergent herbicidal activity, visual rating after 14 d (Table 7); type: in vivo; conditions: post-emergence, 336 h; for pest or weed control at 35 g/ha: 35 g ai/ha; for pest or weed control at 70 g/ha: 70 g ai/ha; for pest or weed control at 140 g/ha: 140 g ai/ha
Summary of the method: as §1

[3] = barnyardgrass (Echinochloa crus-galli), read-out: Visual Growth Reduction (%) 14 Days After Application, ECHCG
[4] = giant foxtail (Setaria faberi), read-out: Visual Growth Reduction (%) 14 Days After Application, SETFA
[5] = maize, corn (Zea mays), read-out: Visual Growth Reduction (%) 14 Days After Application, ZEAMX
[6] = rice (Oryza sativa), read-out: Visual Growth Reduction (%) 14 Days After Application, ORYSA
[7] = wheat, spring (Triticum aestivum), read-out: Visual Growth Reduction (%) 14 Days After Application, TRZAS
[8] = yellow nutsedge (Cyperus esculentus), read-out: Visual Growth Reduction (%) 14 Days After Application, CYPES
[9] = ABUTH: velvetleaf (Abutilon theophrasti), read-out: Visual Growth Reduction (%) 14 Days After Application ABUTH
[10] = AMARE: redroot pigweed (Amaranthus retroflexus), read-out: Visual Growth Reduction (%) 14 Days After Application AMARE
[11] = BRSNN: oilseed rape, canola (Brassica napus), read-out: Visual Growth Reduction (%) 14 Days After Application BRSNN
[12] = CHEAL: lambsquarters (Chenopodium album), read-out: Visual Growth Reduction (%) 14 Days After Application CHEAL
[13] = EPHHL: wild poinsettia (Euphorbia heterophylla), read-out: Visual Growth Reduction (%) 14 Days After Application EPHHL
[14] = HELAN: sunflower (Helianthus annuus), read-out: Visual Growth Reduction (%) 14 Days After Application HELAN

Row | SMILES | pest or weed control at 35 g/ha [1, 3] | pest or weed control at 70 g/ha [1, 3] | pest or weed control at 140 g/ha [1, 3] | pest or weed control at 35 g/ha [1, 4] | pest or weed control at 70 g/ha [1, 4] | pest or weed control at 140 g/ha [1, 4] | pest or weed control at 35 g/ha [1, 6] | pest or weed control at 70 g/ha [1, 6] | pest or weed control at 140 g/ha [1, 6] | pest or weed control at 35 g/ha [1, 7] | pest or weed control at 70 g/ha [1, 7] | pest or weed control at 140 g/ha [1, 7] | pest or weed control at 35 g/ha [1, 8] | pest or weed control at 70 g/ha [1, 8] | pest or weed control at 140 g/ha [1, 8] | pest or weed control at 35 g/ha [2, 9] | pest or weed control at 70 g/ha [2, 9] | pest or weed control at 140 g/ha [2, 9] | pest or weed control at 35 g/ha [2, 10] | pest or weed control at 70 g/ha [2, 10] | further results
1 | COC(=O)c1nc(-c2ccc(F)c3c2OCO3)cc(N)c1Cl [Compound 92] | 0 to 29% | 0 to 29% | 0 to 29% | 0 to 29% | 0 to 29% | 0 to 29% | 0 to 29% | 0 to 29% | 0 to 29% | 0 to 29% | 0 to 29% | 0 to 29% | 0 to 29% | 0 to 29% | 0 to 29% | 60 to 74% | 85 to 94% | 85 to 94% | 95 to 100% | 95 to 100% | pest or weed control at 35 g/ha [1, 5]: 0 to 29%; pest or weed control at 70 g/ha [1, 5]: 0 to 29%; pest or weed control at 140 g/ha [1, 5]: 0 to 29%; pest or weed control at 140 g/ha [2, 10]: 95 to 100%; pest or weed control at 35 g/ha [2, 11]: 30 to 44%; pest or weed control at 70 g/ha [2, 11]: 60 to 74%; pest or weed control at 140 g/ha [2, 11]: 75 to 84%; pest or weed control at 35 g/ha [2, 12]: 95 to 100%; pest or weed control at 70 g/ha [2, 12]: 85 to 94%; pest or weed control at 140 g/ha [2, 12]: 95 to 100%; pest or weed control at 35 g/ha [2, 13]: 0 to 29%; pest or weed control at 70 g/ha [2, 13]: 0 to 29%; pest or weed control at 140 g/ha [2, 13]: 0 to 29%; pest or weed control at 35 g/ha [2, 14]: 60 to 74%; pest or weed control at 70 g/ha [2, 14]: 60 to 74%; pest or weed control at 140 g/ha [2, 14]: 75 to 84%
2 | COC(=O)c1nc(-c2cccc3c2OCO3)cc(N)c1Cl [Compound 93] | 0 to 29% | 0 to 29% | 0 to 29% | 0 to 29% | 0 to 29% | 0 to 29% | 0 to 29% | 0 to 29% | 0 to 29% | 0 to 29% | 0 to 29% | 0 to 29% | 0 to 29% | 0 to 29% | 0 to 29% | 0 to 29% | 0 to 29% | 45 to 59% | 0 to 29% | 0 to 29% | pest or weed control at 35 g/ha [1, 5]: 0 to 29%; pest or weed control at 70 g/ha [1, 5]: 0 to 29%; pest or weed control at 140 g/ha [1, 5]: 0 to 29%; pest or weed control at 140 g/ha [2, 10]: 60 to 74%; pest or weed control at 35 g/ha [2, 11]: 0 to 29%; pest or weed control at 70 g/ha [2, 11]: 30 to 44%; pest or weed control at 140 g/ha [2, 11]: 60 to 74%; pest or weed control at 35 g/ha [2, 12]: 60 to 74%; pest or weed control at 70 g/ha [2, 12]: 75 to 84%; pest or weed control at 140 g/ha [2, 12]: 95 to 100%; pest or weed control at 35 g/ha [2, 13]: 0 to 29%; pest or weed control at 70 g/ha [2, 13]: 0 to 29%; pest or weed control at 140 g/ha [2, 13]: 0 to 29%; pest or weed control at 35 g/ha [2, 14]: 45 to 59%; pest or weed control at 70 g/ha [2, 14]: 60 to 74%; pest or weed control at 140 g/ha [2, 14]: 75 to 84%
3 | COC(=O)c1nc(-c2ccc(Cl)c3c2OC(F)(F)O3)c(C)c(N)c1Cl [Compound 94] | 0 to 29% | 0 to 29% | 0 to 29% | 0 to 29% | 0 to 29% | 0 to 29% | 0 to 29% | 0 to 29% | 0 to 29% | 0 to 29% | 0 to 29% | 0 to 29% | 0 to 29% | 0 to 29% | 0 to 29% | 30 to 44% | 45 to 59% | 45 to 59% | 95 to 100% | 95 to 100% | pest or weed control at 140 g/ha [2, 10]: 95 to 100%; pest or weed control at 35 g/ha [2, 11]: 0 to 29%; pest or weed control at 70 g/ha [2, 11]: 0 to 29%; pest or weed control at 140 g/ha [2, 11]: 0 to 29%; pest or weed control at 35 g/ha [2, 12]: 75 to 84%; pest or weed control at 70 g/ha [2, 12]: 85 to 94%; pest or weed control at 140 g/ha [2, 12]: 85 to 94%; pest or weed control at 35 g/ha [2, 13]: 0 to 29%; pest or weed control at 70 g/ha [2, 13]: 0 to 29%; pest or weed control at 140 g/ha [2, 13]: 0 to 29%; pest or weed control at 35 g/ha [2, 14]: 60 to 74%; pest or weed control at 70 g/ha [2, 14]: 85 to 94%; pest or weed control at 140 g/ha [2, 14]: 95 to 100%
4 | COC(=O)c1nc(-c2ccc(Cl)c3c2OC(F)(F)O3)nc(N)c1OC [Compound 95] | 0 to 29% | 0 to 29% | 0 to 29% | 0 to 29% | 0 to 29% | 0 to 29% | 0 to 29% | 0 to 29% | 0 to 29% | 0 to 29% | 0 to 29% | 0 to 29% | 0 to 29% | 45 to 59% | 45 to 59% | 45 to 59% | 75 to 84% | 75 to 84% | 95 to 100% | 95 to 100% | pest or weed control at 35 g/ha [1, 5]: 0 to 29%; pest or weed control at 70 g/ha [1, 5]: 0 to 29%; pest or weed control at 140 g/ha [1, 5]: 0 to 29%; pest or weed control at 140 g/ha [2, 10]: 95 to 100%; pest or weed control at 35 g/ha [2, 11]: 45 to 59%; pest or weed control at 70 g/ha [2, 11]: 45 to 59%; pest or weed control at 140 g/ha [2, 11]: 60 to 74%; pest or weed control at 35 g/ha [2, 12]: 95 to 100%; pest or weed control at 70 g/ha [2, 12]: 95 to 100%; pest or weed control at 140 g/ha [2, 12]: 95 to 100%; pest or weed control at 35 g/ha [2, 13]: 0 to 29%; pest or weed control at 70 g/ha [2, 13]: 0 to 29%; pest or weed control at 140 g/ha [2, 13]: 0 to 29%; pest or weed control at 35 g/ha [2, 14]: 95 to 100%; pest or weed control at 70 g/ha [2, 14]: 95 to 100%; pest or weed control at 140 g/ha [2, 14]: 95 to 100%

Source: patent US9149038B2, “4-amino-6-(heterocyclic)picolinates and 6-amino-2-(heterocyclic)pyrimidine-4-carboxylates and their use as herbicides” (Dow AgroSciences LLC, priority 2013, dated 2015)
